Measured values as given in US10322111B2, “Chemokine receptor binding heterocyclic compounds with enhanced efficacy” (Genzyme Corporation, priority 2001, dated 2019).
Read-outs that look alike come from different tables or passages of the source.

Tested on: CFU-GM, BFU-E and CFU-GEMM progenitor cells
Conditions: 80 μg/kg s.c.

c1cc(CN2CCCNCCNCCCNCC2)ccc1CN1CCCNCCNCCCNCC1 [AMD3100, 1,1′-[1,4-phenylene-bis(methylene)]-bis-1,4,8,11-tetraazacyclotetradecane] was tested, and the “Absolute # of Progenitors per ML, BFU-E” value (P1, T = 1 h after injection) was 674 per ML, the “Absolute # of Progenitors per ML, CFU-GEMM” value (“Absolute # … per ML, CFU-GEMM” below) (P1, T = 1 h after injection) was 264 per ML and the “Absolute # of Progenitors per ML, CFU-GM” value (P1, T = 1 h after injection) was 1259 per ML. For the same molecule, the “fold change from T=0, progenitors BFU-E, methylcellulose culture” value (shortened to “fold change from T=0, progenitors BFU-E”) (P1, T = 1 h after injection) was 2.58 fold, the “fold change from T=0, progenitors CFU-GEMM, methylcellulose culture” value (P1, T = 1 h after injection) was 2.07 fold and the “fold change from T=0, progenitors CFU-GM, methylcellulose culture” value (shortened to “fold change from T=0, progenitors CFU-GM”) (P1, T = 1 h after injection) was 5.09 fold. For the same molecule, the “Absolute # of Progenitors per ML, BFU-E” value (P1, T = 3 h after injection) was 1340 per ML, the “Absolute # … per ML, CFU-GEMM” value (P1, T = 3 h after injection) was 540 per ML and the “Absolute # of Progenitors per ML, CFU-GM” value (P1, T = 3 h after injection) was 1760 per ML. The “fold change from T=0, progenitors BFU-E” value (P1, T = 3 h after injection) was 5.13 fold, the “fold change from T=0, progenitors CFU-GEMM, methylcellulose culture” value (P1, T = 3 h after injection) was 4.25 fold and the “fold change from T=0, progenitors CFU-GM” value (P1, T = 3 h after injection) was 7.12 fold. For the same molecule, the “Absolute # of Progenitors per ML, BFU-E” value (P1, T = 6 h after injection) was 2388 per ML, the “Absolute # … per ML, CFU-GEMM” value (P1, T = 6 h after injection) was 949 per ML and the “Absolute # of Progenitors per ML, CFU-GM” value (P1, T = 6 h after injection) was 3624 per ML. The “fold change from T=0, progenitors BFU-E” value (P1, T = 6 h after injection) was 9.14 fold, the “fold change from T=0, progenitors CFU-GEMM, methylcellulose culture” value (P1, T = 6 h after injection) was 7.47 fold and the “fold change from T=0, progenitors CFU-GM” value (P1, T = 6 h after injection) was 14.66 fold. For the same molecule, the “Absolute # of Progenitors per ML, BFU-E” value (P1, T = 9 h after injection) was 1418 per ML, the “Absolute # … per ML, CFU-GEMM” value (P1, T = 9 h after injection) was 335 per ML and the “Absolute # of Progenitors per ML, CFU-GM” value (P1, T = 9 h after injection) was 1547 per ML. The “fold change from T=0, progenitors BFU-E” value (P1, T = 9 h after injection) was 5.43 fold, the “fold change from T=0, progenitors CFU-GEMM, methylcellulose culture” value (P1, T = 9 h after injection) was 2.64 fold and the “fold change from T=0, progenitors CFU-GM” value (P1, T = 9 h after injection) was 6.26 fold. For the same molecule, the “Absolute # of Progenitors per ML, BFU-E” value (P1, T = 24 h after injection) was 278 per ML, the “Absolute # … per ML, CFU-GEMM” value (P1, T = 24 h after injection) was 142 per ML and the “Absolute # of Progenitors per ML, CFU-GM” value (P1, T = 24 h after injection) was 271 per ML. For the same molecule, the “fold change from T=0, progenitors BFU-E” value (P1, T = 24 h after injection) was 1.06 fold, the “fold change from T=0, progenitors CFU-GEMM, methylcellulose culture” value (P1, T = 24 h after injection) was 1.12 fold and the “fold change from T=0, progenitors CFU-GM” value (P1, T = 24 h after injection) was 1.10 fold. The “Absolute # of Progenitors per ML, BFU-E” value (P2, T = 1 h after injection) was 608 per ML, the “Absolute # … per ML, CFU-GEMM” value (P2, T = 1 h after injection) was 272 per ML and the “Absolute # of Progenitors per ML, CFU-GM” value (P2, T = 1 h after injection) was 1455 per ML. The “fold change from T=0, progenitors BFU-E” value (P2, T = 1 h after injection) was 1.48 fold, the “fold change from T=0, progenitors CFU-GEMM, methylcellulose culture” value (P2, T = 1 h after injection) was 2.26 fold and the “fold change from T=0, progenitors CFU-GM” value (P2, T = 1 h after injection) was 5.33 fold. For the same molecule, the “Absolute # of Progenitors per ML, BFU-E” value (P2, T = 3 h after injection) was 809 per ML, the “Absolute # … per ML, CFU-GEMM” value (P2, T = 3 h after injection) was 418 per ML and the “Absolute # of Progenitors per ML, CFU-GM” value (P2, T = 3 h after injection) was 4646 per ML. For the same molecule, the “fold change from T=0, progenitors BFU-E” value (P2, T = 3 h after injection) was 1.98 fold, the “fold change from T=0, progenitors CFU-GEMM, methylcellulose culture” value (P2, T = 3 h after injection) was 3.47 fold and the “fold change from T=0, progenitors CFU-GM” value (P2, T = 3 h after injection) was 17.02 fold. The “Absolute # of Progenitors per ML, BFU-E” value (P2, T = 6 h after injection) was 1502 per ML, the “Absolute # … per ML, CFU-GEMM” value (P2, T = 6 h after injection) was 1126 per ML and the “Absolute # of Progenitors per ML, CFU-GM” value (P2, T = 6 h after injection) was 6540 per ML. The “fold change from T=0, progenitors BFU-E” value (P2, T = 6 h after injection) was 3.67 fold, the “fold change from T=0, progenitors CFU-GEMM, methylcellulose culture” value (P2, T = 6 h after injection) was 9.35 fold and the “fold change from T=0, progenitors CFU-GM” value (P2, T = 6 h after injection) was 23.96 fold. For the same molecule, the “Absolute # of Progenitors per ML, BFU-E” value (P2, T = 9 h after injection) was 1886 per ML, the “Absolute # … per ML, CFU-GEMM” value (P2, T = 9 h after injection) was 854 per ML and the “Absolute # of Progenitors per ML, CFU-GM” value (P2, T = 9 h after injection) was 3416 per ML. The “fold change from T=0, progenitors BFU-E” value (P2, T = 9 h after injection) was 4.61 fold, the “fold change from T=0, progenitors CFU-GEMM, methylcellulose culture” value (P2, T = 9 h after injection) was 7.09 fold and the “fold change from T=0, progenitors CFU-GM” value (P2, T = 9 h after injection) was 12.51 fold. For the same molecule, the “Absolute # of Progenitors per ML, BFU-E” value (P2, T = 24 h after injection) was 768 per ML, the “Absolute # … per ML, CFU-GEMM” value (P2, T = 24 h after injection) was 316 per ML and the “Absolute # of Progenitors per ML, CFU-GM” value (P2, T = 24 h after injection) was 521 per ML. For the same molecule, the “fold change from T=0, progenitors BFU-E” value (P2, T = 24 h after injection) was 1.88 fold, the “fold change from T=0, progenitors CFU-GEMM, methylcellulose culture” value (P2, T = 24 h after injection) was 2.62 fold and the “fold change from T=0, progenitors CFU-GM” value (P2, T = 24 h after injection) was 1.91 fold. The “Absolute # of Progenitors per ML, BFU-E” value (P3, T = 1 h after injection) was 806 per ML, the “Absolute # … per ML, CFU-GEMM” value (P3, T = 1 h after injection) was 312 per ML and the “Absolute # of Progenitors per ML, CFU-GM” value (P3, T = 1 h after injection) was 1040 per ML. The “fold change from T=0, progenitors BFU-E” value (P3, T = 1 h after injection) was 2.30 fold, the “fold change from T=0, progenitors CFU-GEMM, methylcellulose culture” value (P3, T = 1 h after injection) was 2.22 fold and the “fold change from T=0, progenitors CFU-GM” value (P3, T = 1 h after injection) was 3.70 fold. The “Absolute # of Progenitors per ML, BFU-E” value (P3, T = 3 h after injection) was 915 per ML, the “Absolute # … per ML, CFU-GEMM” value (P3, T = 3 h after injection) was 610 per ML and the “Absolute # of Progenitors per ML, CFU-GM” value (P3, T = 3 h after injection) was 4233 per ML. For the same molecule, the “fold change from T=0, progenitors BFU-E” value (P3, T = 3 h after injection) was 2.61 fold, the “fold change from T=0, progenitors CFU-GEMM, methylcellulose culture” value (P3, T = 3 h after injection) was 4.34 fold and the “fold change from T=0, progenitors CFU-GM” value (P3, T = 3 h after injection) was 15.07 fold. For the same molecule, the “Absolute # of Progenitors per ML, BFU-E” value (P3, T = 6 h after injection) was 1593 per ML, the “Absolute # … per ML, CFU-GEMM” value (P3, T = 6 h after injection) was 916 per ML and the “Absolute # of Progenitors per ML, CFU-GM” value (P3, T = 6 h after injection) was 5895 per ML. For the same molecule, the “fold change from T=0, progenitors BFU-E” value (P3, T = 6 h after injection) was 4.54 fold, the “fold change from T=0, progenitors CFU-GEMM, methylcellulose culture” value (P3, T = 6 h after injection) was 6.52 fold and the “fold change from T=0, progenitors CFU-GM” value (P3, T = 6 h after injection) was 20.99 fold. For the same molecule, the “Absolute # of Progenitors per ML, BFU-E” value (P3, T = 9 h after injection) was 1302 per ML, the “Absolute # … per ML, CFU-GEMM” value (P3, T = 9 h after injection) was 347 per ML and the “Absolute # of Progenitors per ML, CFU-GM” value (P3, T = 9 h after injection) was 2647 per ML. For the same molecule, the “fold change from T=0, progenitors BFU-E” value (P3, T = 9 h after injection) was 3.71 fold, the “fold change from T=0, progenitors CFU-GEMM, methylcellulose culture” value (P3, T = 9 h after injection) was 2.47 fold and the “fold change from T=0, progenitors CFU-GM” value (P3, T = 9 h after injection) was 9.42 fold. For the same molecule, the “Absolute # of Progenitors per ML, BFU-E” value (P3, T = 24 h after injection) was 402 per ML, the “Absolute # … per ML, CFU-GEMM” value (P3, T = 24 h after injection) was 97 per ML and the “Absolute # of Progenitors per ML, CFU-GM” value (P3, T = 24 h after injection) was 402 per ML. For the same molecule, the “fold change from T=0, progenitors BFU-E” value (P3, T = 24 h after injection) was 1.14 fold and the “fold change from T=0, progenitors CFU-GEMM, methylcellulose culture” value (P3, T = 24 h after injection) was 0.69 fold.
